From patent US10323041B2, “Bicyclic derivatives, a process for their preparation and pharmaceutical compositions containing them” (LES LABORATOIRES SERVIER, priority 2015, dated 2019)

The molecules below were run against Mcl-1 protein (Homo sapiens, UniProt Q07820) (assay: Inhibition of Mcl-1 by the fluorescence polarisation technique). Conditions: @ 10 μM test compound; partial inhibitors.
Format: binding
Protocol: The relative binding potency of each compound was determined via fluorescence Polarisation (FP). The method utilised a Fluorescein labelled ligand Fluorescein-βAla-Ahx-[A-REIGAQLRRMADDLNAQY (SEQ ID NO: 1)]-OH; mw 2,765) which binds to the Mcl-1 protein (such that corresponds to the UniProtKB® primary accession number: Q07820) leading to an increased anisotropy measured in milli-polarisation (mP) units using a reader. The addition of a compound which binds competitively to the same site as the ligand will result in a greater proportion of unbound ligand in the system indicated by a decrease in mP units.
Method 1: An 11 point serial dilution of each compound was prepared in DMSO and 2 μl transferred into flat bottomed, low binding, 384-well plate (final DMSO concentration 5%). 38 μl of buffer (10 mM 4-(2-hydroxyethyl)-1-piperazineethanesulfonic acid [HEPES], 150 mM NaCl, 0.05% Tween 20, pH 7.4), containing the Fluorescein labelled ligand (final concentration 1 nM) and Mcl-1 protein (final concentration 5 nM) was then added.
(§1) Assay plates were incubated ˜2 hours at room temperature before FP was measured on a […] Synergy2 reader (Ex. 528 nm, Em. 640 nm, Cut off 510 nm) and mP units calculated. The binding of increasing doses of test compound was expressed as a percentage reduction in mP compared to a window established between ‘5% DMSO only’ and ‘100% inhibition’ controls. 11-point dose response curves were plotted with XL-Fit software using a 4-Parameter Logistic Model (Sigmoidal Dose-Response Model) and the inhibitory concentrations that gave a 50% reduction in mP (IC50) were determined. Results obtained using Method 1 are presented in Table 1 below; IC50 of Mcl-1 inhibition obtained using Method 1 are not underlined.
Method 2: An 11 point serial dilution of each compound was prepared in DMSO and 2 μl transferred into flat bottomed, low binding, 384-well plate (final DMSO concentration 5%). 38 μl of buffer (20 mM Na2HPO4, 1 mM EDTA, 50 mM NaCl, pH 7.4), containing the Fluorescein labelled ligand (final concentration 10 nM) and Mcl-1 protein (final concentration 10 nM) was then added.
as §1, with “inhibition’ controls (50 μM unlabelled ligand).” for “inhibition’ controls.”, “Method 2” for “Method 1”, “are” for “are not”

Chain of Mcl-1 protein (Q07820 whole entry): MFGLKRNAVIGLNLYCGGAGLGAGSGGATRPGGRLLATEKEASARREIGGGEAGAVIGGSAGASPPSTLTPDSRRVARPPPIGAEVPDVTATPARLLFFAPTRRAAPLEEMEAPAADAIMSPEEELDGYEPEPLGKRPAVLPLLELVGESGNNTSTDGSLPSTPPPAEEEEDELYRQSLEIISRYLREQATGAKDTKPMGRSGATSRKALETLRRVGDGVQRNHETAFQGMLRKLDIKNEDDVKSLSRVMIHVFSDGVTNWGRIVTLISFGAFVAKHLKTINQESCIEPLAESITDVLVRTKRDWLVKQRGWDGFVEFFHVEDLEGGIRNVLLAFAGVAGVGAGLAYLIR

Row | SMILES | percentage fluorescence polarization inhibition [% @ 10 μM]
1 | COc1ccccc1CC(Oc1cccc2cc(-c3ccco3)n(-c3ccc(OCCN4CCN(C)CC4)c(Cl)c3C)c12)C(=O)O [Example 58, (2R)-2-{[(1Ra)-1-{3-chloro-2-methyl-4-[2-(4-methylpiperazin-1-yl)ethoxy]phenyl}-2-(furan-2-yl)-1H-indol-7-yl]oxy}-3-(2-methoxyphenyl)propanoic acid] | 51.9
2 | CCc1sc2cccc(OC(Cc3ccccc3)C(=O)O)c2c1-c1ccc(O)c(Cl)c1C [Example 50, (2R)-2-{[(3Ra)-3-(3-chloro-4-hydroxy-2-methylphenyl)-2-ethyl-1-benzothiophen-4-yl]oxy}-3-phenylpropanoic acid] | 65.85

Same assay, conditions: @ 10 μM test compound; partial inhibitors; read-out: percentage fluorescence polarization inhibition

Row | SMILES | inhibition at 10 µM [%]
3 | Cc1c(Cl)cccc1-c1csc2ccnc(N[C@H](Cc3ccccc3)C(=O)O)c12 [Example 70, N-[3-(3-chloro-2-methylphenyl)thieno[3,2-c]pyridin-4-yl]-D-phenylalanine] | 13.6

Same assay, conditions: @ 50 μM test compound; partial inhibitors

Row | SMILES | percentage fluorescence polarization inhibition [% @ 50 μM]
4 | CCc1c(-c2cccc(Cl)c2C)c2c(NC(Cc3ccccc3)C(=O)O)ncnc2n1CC1CC1 [Example 22, N-[(5Ra)-5-(3-chloro-2-methylphenyl)-7-(cyclopropylmethyl)-6-ethyl-7H-pyrrolo[2,3-d]pyrimidin-4-yl]-D-phenylalanine] | 74.2
5 | C=CCn1c(Br)c(-c2cccc(Cl)c2C)c2c(NC(Cc3ccccc3)C(=O)O)ncnc21 [Example 43, N-[6-bromo-(5Ra)-5-(3-chloro-2-methylphenyl)-7-(prop-2-en-1-yl)-7H-pyrrolo[2,3-d]pyrimidin-4-yl]-D-phenylalanine] | 66.9

Same assay, conditions: Method 1 (not underlined) or Method 2 (underlined); underlining not visible; first value where cell prints two; read-out: IC50 (M) Mcl-1 FP

Row | SMILES | IC50 [M]
6 | Cc1c(Cl)cccc1-c1c2n(c3ncnc(NC(Cc4ccccc4)C(=O)O)c13)CCCC2 (single isomer, unassigned) [Example 47, N-[(5Ra)-5-(3-chloro-2-methylphenyl)-6,7,8,9-tetrahydropyrimido[5,4-b]indolizin-4-yl]-D-phenylalanine] | 1.1e-05
7 | CCc1c(-c2cccc(Cl)c2C)c2c(NC(Cc3ccccc3)C(=O)O)ncnc2n1Cc1ccc(OC)cc1 (single isomer, unassigned) [Example 34, N-[(5Ra)-5-(3-chloro-2-methylphenyl)-6-ethyl-7-(4-methoxybenzyl)-7H-pyrrolo[2,3-d]pyrimidin-4-yl]-D-phenylalanine] | 6.4e-06
8 | Cc1c(Cl)cccc1-c1c2n(c3ncnc(NC(Cc4ccccc4)C(=O)O)c13)CCCC2 (single isomer, unassigned) [Example 48, N-[(5Sa)-5-(3-chloro-2-methylphenyl)-6,7,8,9-tetrahydropyrimido[5,4-b]indolizin-4-yl]-D-phenylalanine] | 5.9e-06
9 | CCc1c(-c2cccc(Cl)c2C)c2c(NC(Cc3ccccc3)C(=O)O)ncnc2n1Cc1ccccc1 (single isomer, unassigned) [Example 36, N-[7-benzyl-(5Ra)-5-(3-chloro-2-methylphenyl)-6-ethyl-7H-pyrrolo[2,3-d]pyrimidin-4-yl]-D-phenylalanine] | 6.5e-06
10 | O=C(O)[C@@H](Cc1ccccc1)Nc1ncnc2[nH]cc(-c3cccc4ccccc34)c12 [Example 11, N-[5-(naphthalen-1-yl)-7H-pyrrolo[2,3-d]pyrimidin-4-yl]-D-phenylalanine] | 3.4e-05
11 | CCc1sc2cccc(OC(Cc3ccccc3)C(=O)O)c2c1-c1ccc(O)c(Cl)c1C [Example 49, (2R)-2-{[(3Sa)-3-(3-chloro-4-hydroxy-2-methylphenyl)-2-ethyl-1-benzothiophen-4-yl]oxy}-3-phenylpropanoic acid] | 3.9e-08
12 | CCc1sc2cccc(CC(Cc3ccccc3)C(=O)O)c2c1-c1ccc(O)c(Cl)c1C (stereo not shown) [Example 54, 2-benzyl-3-[3-(3-chloro-4-hydroxy-2-methylphenyl)-2-ethyl-1-benzothiophen-4-yl]propanoic acid] | 1.2e-07
13 | CCc1c(-c2ccc(OCCN3CCN(C)CC3)c(Cl)c2C)c2c(OC(Cc3ccccc3)C(=O)O)ncnc2n1Cc1ccccc1 [Example 40, (2R)-2-[(7-benzyl-(5Sa)-5-{3-chloro-2-methyl-4-[2-(4-methylpiperazin-1-yl)ethoxy]phenyl}-6-ethyl-7H-pyrrolo[2,3-d]pyrimidin-4-yl)oxy]-3-phenylpropanoic acid] | 8.6e-07
14 | CCc1c(-c2cccc3ccccc23)c2c(N[C@H](Cc3ccccc3)C(=O)O)ncnc2n1Cc1ccccc1 (single isomer, unassigned) [Example 12, N-[7-benzyl-6-ethyl-5-(naphthalen-1-yl)-7H-pyrrolo[2,3-d]pyrimidin-4-yl]-D-phenylalanine] | 5.6e-07
15 | CCc1c(-c2cccc(Cl)c2C)c2c(NC(Cc3ccccc3)C(=O)O)ncnc2n1Cc1ccc(OC)cc1 (single isomer, unassigned) [Example 35, N-[(5Sa)-5-(3-chloro-2-methylphenyl)-6-ethyl-7-(4-methoxybenzyl)-7H-pyrrolo[2,3-d]pyrimidin-4-yl]-D-phenylalanine] | 2.9e-07
16 | CC#CCn1c(CC)c(-c2cccc(Cl)c2C)c2c(NC(Cc3ccccc3)C(=O)O)ncnc21 (single isomer, unassigned) [Example 26, N-[7-(but-2-yn-1-yl)-(5Ra)-5-(3-chloro-2-methylphenyl)-6-ethyl-7H-pyrrolo[2,3-d]pyrimidin-4-yl]-D-phenylalanine] | 5.9e-06
17 | CCc1c(-c2cccc(Cl)c2C)c2c(NC(Cc3ccccc3)C(=O)O)ncnc2n1CC1CC1 [Example 23, N-[(5Sa)-5-(3-chloro-2-methylphenyl)-7-(cyclopropylmethyl)-6-ethyl-7H-pyrrolo[2,3-d]pyrimidin-4-yl]-D-phenylalanine] | 6.8e-06
18 | CCc1c(-c2cccc3ccccc23)c2c(N[C@H](Cc3ccccc3)C(=O)O)ncnc2n1CCc1ccccc1 (single isomer, unassigned) [Example 16, N-[6-ethyl-5-(naphthalen-1-yl)-7-(2-phenylethyl)-7H-pyrrolo[2,3-d]pyrimidin-4-yl]-D-phenylalanine] | 1.8e-06
19 | COc1ccccc1-c1nccc(COc2ccccc2CC(Oc2cccc3oc(-c4ccc(F)cc4)c(-c4ccc(OCCN5CCN(C)CC5)c(Cl)c4C)c23)C(=O)O)n1 (single isomer, unassigned) [Example 63] | 1.7e-07
20 | COc1ccccc1CC(Oc1cccc2oc(-c3ccc(F)cc3)c(-c3ccc(OCCN4CCN(C)CC4)c(Cl)c3C)c12)C(=O)O [Example 62, (2R)-2-{[(3Sa)-3-{3-chloro-2-methyl-4-[2-(4-methylpiperazin-1-yl)ethoxy]phenyl}-2-(4-fluorophenyl)-1-benzofuran-4-yl]oxy}-3-(2-methoxyphenyl)propanoic acid] | 8.2e-07
21 | CC#CCn1c(CC)c(-c2cccc(Cl)c2C)c2c(NC(Cc3ccccc3)C(=O)O)ncnc21 (single isomer, unassigned) [Example 27, N-[7-(but-2-yn-1-yl)-(5Sa)-5-(3-chloro-2-methylphenyl)-6-ethyl-7H-pyrrolo[2,3-d]pyrimidin-4-yl]-D-phenylalanine] | 3.3e-07
22 | C=CCCn1c(Br)c(-c2cccc(Cl)c2C)c2c(NC(Cc3ccccc3)C(=O)O)ncnc21 (single isomer, unassigned) [Example 41, N-[6-bromo-7-(but-3-en-1-yl)-(5Ra)-5-(3-chloro-2-methylphenyl)-7H-pyrrolo[2,3-d]pyrimidin-4-yl]-D-phenylalanine] | 1.3e-05
23 | C=CCn1c(CC)c(-c2cccc(Cl)c2C)c2c(NC(Cc3ccccc3)C(=O)O)ncnc21 (single isomer, unassigned) [Example 24, N-[(5Ra)-5-(3-chloro-2-methylphenyl)-6-ethyl-7-(prop-2-en-1-yl)-7H-pyrrolo[2,3-d]pyrimidin-4-yl]-D-phenylalanine] | 1.8e-05
24 | CCc1c(-c2cccc3ccccc23)c2c(N[C@H](Cc3ccccc3)C(=O)O)ncnc2n1CCCc1ccccc1 (single isomer, unassigned) [Example 19, N-[6-ethyl-5-(naphthalen-1-yl)-7-(3-phenylpropyl)-7H-pyrrolo[2,3-d]pyrimidin-4-yl]-D-phenylalanine] | 3.3e-06

Same assay, conditions: value after '/'; presumably the other FP method (Method 1 / Method 2); read-out: IC50 (M) Mcl-1 FP, second value of the cell

Row | SMILES | IC50 [M]
25 | CCc1c(-c2ccc(OCCN3CCN(C)CC3)c(Cl)c2C)c2c(OC(Cc3ccccc3)C(=O)O)ncnc2n1Cc1ccccc1 [Example 40, (2R)-2-[(7-benzyl-(5Sa)-5-{3-chloro-2-methyl-4-[2-(4-methylpiperazin-1-yl)ethoxy]phenyl}-6-ethyl-7H-pyrrolo[2,3-d]pyrimidin-4-yl)oxy]-3-phenylpropanoic acid] | 3.3e-08
